Measurements: the supplement of paper PMC6045584
± gives the standard deviation of the averaged measurements.

Columns and labels:
LENVATINIB = compound: COc1cc2nccc(Oc3ccc(NC(=O)NC4CC4)c(Cl)c3)c2cc1C(N)=O [LENVATINIB]; experiment: surviving fraction relative to DMSO-only wells; higher = less growth inhibition; details: exposure time: 5 days
How it was run: (§1)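 Surviving fraction was calculated by normalising CellTiter-Glo luminescence to the median of DMSO-only wells. Tumour cell lines in log phase were seeded in 384-well plates at 250–500 cells per well, and 24 hours later were exposed continuously for five days to inhibitors at 0.5, 1, 5, 10, 50, 100, 500 and 1000 nM.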

BEZ-235 = compound: Cn1c(=O)n(-c2ccc(C(C)(C)C#N)cc2)c2c3cc(-c4cnc5ccccc5c4)ccc3ncc21 [BEZ-235]; experiment: as above; details: exposure time: 5 days
How it was run: as §1

Row | Test System | surviving fraction (LENVATINIB; 0.5 nM) | surviving fraction (LENVATINIB; 1 nM) | surviving fraction (LENVATINIB; 5 nM) | surviving fraction (LENVATINIB; 10 nM) | surviving fraction (LENVATINIB; 50 nM) | surviving fraction (LENVATINIB; 100 nM) | surviving fraction (LENVATINIB; 500 nM) | surviving fraction (LENVATINIB; 1000 nM) | surviving fraction (BEZ-235; 0.5 nM) | surviving fraction (BEZ-235; 1 nM) | surviving fraction (BEZ-235; 5 nM) | surviving fraction (BEZ-235; 10 nM) | surviving fraction (BEZ-235; 50 nM) | surviving fraction (BEZ-235; 100 nM) | surviving fraction (BEZ-235; 500 nM) | surviving fraction (BEZ-235; 1000 nM)
1 | 22RV1 PROSTATE | 1.06 ± 0.03 | 1.05 ± 0.056 | 1.05 ± 0.059 | 1.01 ± 0.075 | 1.05 ± 0.11 | 0.97 ± 0.031 | 1.08 ± 0.032 | 1.06 ± 0.12 | 1.04 ± 0.047 | 1.02 ± 0.085 | 0.992 ± 0.097 | 0.949 ± 0.096 | 0.448 ± 0.025 | 0.339 ± 0.065 | 0.126 ± 0.017 | 0.119 ± 0.018
2 | 93VU HEADNECK | 1.05 ± 0.044 | 1.11 ± 0.074 | 1.09 ± 0.12 | 1.167 ± 0.0038 | 1.18 ± 0.087 | 1.19 ± 0.086 | 0.99 ± 0.036 | 1.11 ± 0.024 | 0.972 ± 0.12 | 0.985 ± 0.13 | 1.1 ± 0.11 | 1.08 ± 0.059 | 0.921 ± 0.035 | 0.71 ± 0.1 | 0.308 ± 0.053 | 0.334 ± 0.043
3 | 143B BONE | 0.992 ± 0.0085 | 1.018 ± 0.0064 | 1.04 ± 0.022 | 1.01 ± 0.027 | 1.04 ± 0.012 | 1.05 ± 0.015 | 1.05 ± 0.022 | 1.05 ± 0.013 | 1.03 ± 0.047 | 1.04 ± 0.047 | 1.031 ± 0.0028 | 1.0385 ± 0.00071 | 0.852 ± 0.033 | 0.735 ± 0.017 | 0.36 ± 0.017 | 0.336 ± 0.0028
4 | A549 LUNG | 1.04 ± 0.067 | 1.03 ± 0.053 | 1.04 ± 0.053 | 1.04 ± 0.061 | 1.06 ± 0.087 | 1.03 ± 0.044 | 1.13 ± 0.073 | 1.12 ± 0.025 | 0.997 ± 0.054 | 1.01 ± 0.052 | 1.01 ± 0.074 | 1.01 ± 0.083 | 1.03 ± 0.033 | 0.66 ± 0.022 | 0.26 ± 0.022 | 0.221 ± 0.0093
5 | ASKA SYNOVIAL | 1.12 ± 0.063 | 1.04 ± 0.045 | 1.13 ± 0.082 | 1.12 ± 0.1 | 1.19 ± 0.11 | 1.21 ± 0.024 | 1.09 ± 0.044 | 1.04 ± 0.041 | 1.06 ± 0.03 | 0.994 ± 0.023 | 0.896 ± 0.032 | 0.9767 ± 0.0031 | 0.775 ± 0.046 | 0.652 ± 0.016 | 0.418 ± 0.02 | 0.436 ± 0.019
6 | BT20 BREAST | 1.15 ± 0.07 | 1.2 ± 0.077 | 1.21 ± 0.093 | 1.01 ± 0.15 | 1.05 ± 0.088 | 1.05 ± 0.16 | 1.24 ± 0.16 | 1.08 ± 0.2 | 1.13 ± 0.062 | 1.07 ± 0.18 | 1.04 ± 0.14 | 1.03 ± 0.082 | 0.619 ± 0.051 | 0.42 ± 0.087 | 0.265 ± 0.044 | 0.246 ± 0.031
7 | BT549 BREAST | 1.1 ± 0.043 | 1.16 ± 0.27 | 1.24 ± 0.031 | 1.11 ± 0.26 | 1.04 ± 0.15 | 1.15 ± 0.056 | 1.11 ± 0.087 | 1.06 ± 0.11 | 1.06 ± 0.11 | 1.03 ± 0.032 | 1.03 ± 0.02 | 0.763 ± 0.22 | 0.699 ± 0.016 | 0.244 ± 0.073 | 0.136 ± 0.017 | 0.247 ± 0.29
8 | C33A CERVIX | 0.874 ± 0.037 | 0.937 ± 0.094 | 1 ± 0.14 | 1 ± 0.11 | 1.06 ± 0.097 | 1.14 ± 0.056 | 1.02 ± 0.1 | 0.955 ± 0.088 | 0.941 ± 0.029 | 0.984 ± 0.064 | 1.01 ± 0.098 | 0.993 ± 0.081 | 0.62 ± 0.043 | 0.349 ± 0.031 | 0.15 ± 0.016 | 0.14 ± 0.011
9 | CADOES1 SOFT TISSUE | 0.975 ± 0.14 | 0.885 ± 0.14 | 0.859 ± 0.14 | 0.885 ± 0.049 | 0.897 ± 0.1 | 0.836 ± 0.11 | 0.839 ± 0.075 | 0.842 ± 0.17 | 0.965 ± 0.1 | 0.996 ± 0.098 | 0.897 ± 0.03 | 0.99 ± 0.078 | 0.531 ± 0.11 | 0.28 ± 0.063 | 0.128 ± 0.007 | 0.0853 ± 0.01
10 | CAL51 BREAST | 0.974 ± 0.023 | 0.975 ± 0.011 | 0.983 ± 0.011 | 0.98 ± 0.031 | 0.973 ± 0.045 | 0.976 ± 0.022 | 0.853 ± 0.051 | 0.755 ± 0.0033 | 0.92 ± 0.025 | 0.958 ± 0.035 | 0.902 ± 0.086 | 0.894 ± 0.056 | 0.453 ± 0.032 | 0.279 ± 0.018 | 0.097 ± 0.005 | 0.0853 ± 0.0042
